In PubChem BioAssay (NCI) one finds TGI data, which are given here for 19 molecules.

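Cells were grown in 96-well plates and exposed to each compound for 48 hours at five concentrations; endpoints were interpolated linearly between bracketing concentrations, or set to the highest concentration if not reached. TGI is the concentration that stops growth completely.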

Test systems include MCF7 breast; HS 578T breast; UO-31 renal; SN12C renal; T-47D breast; OVCAR-8 ovarian; OVCAR-5 ovarian; HCC-2998 colon; SK-MEL-5 melanoma; UACC-62 melanoma.
Experiment in all cases: NCI tumour cell line growth inhibition, 48 h

Take `CC(NC(=O)/C(=C/c1ccccc1)NC(=O)c1ccccc1)C(=O)O` (stereo not given): the TGI in the experiment with MCF7 breast, with HS 578T breast, in the experiment with UO-31 renal, in the experiment with SN12C renal, in the experiment on T-47D breast and with OVCAR-8 ovarian was > 100 µM in each case. Besides, the TGI in the experiment on OVCAR-5 ovarian, in the experiment on HCC-2998 colon, with SK-MEL-5 melanoma and in the experiment on UACC-62 melanoma was > 100 µM each time.
As for `C=CCN(c1cc(OCc2ccccc2)c2[nH]cc(C)c2c1)S(C)(=O)=O`, the TGI in the experiment on MCF7 breast was > 100 µM; with HS 578T breast it was > 100 µM; with UO-31 renal, > 100 µM; with SN12C renal, > 100 µM; with T-47D breast, 60.6 µM; with OVCAR-8 ovarian it was > 100 µM. Also, the TGI in the experiment with OVCAR-5 ovarian, in the experiment on HCC-2998 colon, with SK-MEL-5 melanoma and with UACC-62 melanoma was > 100 µM in each case.
Take `COC(=O)C1CCC(=O)N1CN(C(C)=O)c1ccccc1Cl` (stereo not given): the TGI in the experiment on MCF7 breast, in the experiment with HS 578T breast, with UO-31 renal, with SN12C renal, in the experiment with T-47D breast and in the experiment on OVCAR-8 ovarian was > 100 µM each time. In addition, the TGI in the experiment with OVCAR-5 ovarian, in the experiment on HCC-2998 colon, with SK-MEL-5 melanoma and in the experiment with UACC-62 melanoma was > 100 µM throughout.
Turning to `CC[C@H](C)[C@H]1NC(=O)[C@@H](NC(=O)[C@@H](CC(C)C)N(C)C(=O)C2CCCN2C(=O)[C@H](C)O)[C@@H](C)OC(=O)[C@H](Cc2ccc(OC)cc2)N(C)C(=O)[C@@H]2CCCN2C(=O)[C@H](CCCCNC(=O)OCc2ccccc2)NC(=O)[C@H](C)C(=O)[C@H](C(C)C)OC(=O)C[C@@H]1O` (stereo not given in full), the TGI in the experiment on MCF7 breast was > 25 µM; in the experiment on HS 578T breast, 8.35 µM; in the experiment with UO-31 renal, > 25 µM; with SN12C renal it was > 25 µM; in the experiment on T-47D breast, > 25 µM; in the experiment on OVCAR-8 ovarian, > 25 µM. Besides, the TGI is > 25 µM in the experiment with OVCAR-5 ovarian, 9.79 µM in the experiment on HCC-2998 colon, > 25 µM in the experiment on SK-MEL-5 melanoma and > 25 µM with UACC-62 melanoma.
With `COc1cc(OC)c2c(c1)OC(c1ccccc1)CC2=O` (stereo not given), the TGI in the experiment with MCF7 breast, with HS 578T breast, in the experiment with UO-31 renal, in the experiment on SN12C renal, with T-47D breast and in the experiment on OVCAR-8 ovarian was > 10 µM throughout. In addition, the TGI in the experiment with OVCAR-5 ovarian, with HCC-2998 colon, in the experiment with SK-MEL-5 melanoma and in the experiment with UACC-62 melanoma was > 10 µM throughout.
Take `O=P12N(CCN1c1ccccc1)CCN2c1ccccc1`: the TGI with MCF7 breast, in the experiment with HS 578T breast, in the experiment with UO-31 renal, in the experiment on SN12C renal, in the experiment on T-47D breast and in the experiment on OVCAR-8 ovarian was > 100 µM throughout. For the same molecule, the TGI with OVCAR-5 ovarian, in the experiment with HCC-2998 colon, in the experiment with SK-MEL-5 melanoma and in the experiment with UACC-62 melanoma was > 100 µM in each case.
In the case of `O=c1ccn(CC2(CO)CCC2)c(=O)[nH]1`, the TGI in the experiment on MCF7 breast, with HS 578T breast, in the experiment with UO-31 renal, in the experiment with SN12C renal, in the experiment with T-47D breast and with OVCAR-8 ovarian was > 100 µM in each case. The TGI in the experiment on OVCAR-5 ovarian, in the experiment on HCC-2998 colon, with SK-MEL-5 melanoma and in the experiment on UACC-62 melanoma was > 100 µM each time.
For the molecule `O=c1cc(N=Nc2ccc(Br)cc2)[nH]c(=S)[nH]1`, the TGI with MCF7 breast is 42.7 µM; in the experiment with HS 578T breast it was > 100 µM; in the experiment on UO-31 renal, > 100 µM; with SN12C renal, > 100 µM; in the experiment on T-47D breast, 62.4 µM; in the experiment with OVCAR-8 ovarian, 51.3 µM. For the same molecule, the TGI in the experiment on OVCAR-5 ovarian is > 100 µM; with HCC-2998 colon, 38.6 µM; in the experiment on SK-MEL-5 melanoma, > 100 µM; in the experiment on UACC-62 melanoma, > 100 µM.
Take `O=C1C[C@H](c2ccccc2)O[C@@H](c2ccccc2)C1`: the TGI in the experiment with MCF7 breast, with HS 578T breast, in the experiment on UO-31 renal, with SN12C renal, in the experiment on T-47D breast and with OVCAR-8 ovarian was > 100 µM each time. The TGI with OVCAR-5 ovarian, with HCC-2998 colon, in the experiment with SK-MEL-5 melanoma and in the experiment on UACC-62 melanoma was > 100 µM each time.
As to `CC#CC(O)(C(=O)OCCCN(C)C)C1CCCCC1` (stereo not given), the TGI in the experiment on MCF7 breast, in the experiment on HS 578T breast, in the experiment on UO-31 renal, in the experiment on SN12C renal, with T-47D breast and in the experiment on OVCAR-8 ovarian was > 100 µM throughout. The TGI in the experiment with OVCAR-5 ovarian, with HCC-2998 colon, in the experiment with SK-MEL-5 melanoma and in the experiment with UACC-62 melanoma was > 100 µM throughout.
On to `O=C1NC(=O)C(F)(n2cc(F)c(=O)[nH]c2=O)C(O)N1` (stereo not given), for which the TGI in the experiment with MCF7 breast, in the experiment with HS 578T breast, in the experiment with UO-31 renal, with SN12C renal, in the experiment with T-47D breast and with OVCAR-8 ovarian was > 10 µM throughout. Further, the TGI with OVCAR-5 ovarian, in the experiment on HCC-2998 colon, in the experiment with SK-MEL-5 melanoma and with UACC-62 melanoma was > 10 µM in each case.
In the case of `CC(ON(C(c1ccccc1)C(C)C)C(C)(C)C)c1ccccc1` (stereo not given), the TGI with MCF7 breast was determined as 30 µM; with HS 578T breast, 64.1 µM; in the experiment on UO-31 renal it was 43.3 µM; in the experiment with SN12C renal it was 32.5 µM; in the experiment with T-47D breast it was 81 µM; in the experiment with OVCAR-8 ovarian, 51.7 µM. Moreover, the TGI with OVCAR-5 ovarian stood at 29.8 µM; in the experiment on HCC-2998 colon, 33.7 µM; in the experiment on SK-MEL-5 melanoma, 29.7 µM; with UACC-62 melanoma, 32.2 µM.
Consider `COC(=O)/C=C1\C(=O)N(C(C)=O)c2ccc(Br)cc21`, for which the TGI in the experiment with MCF7 breast is 16.8 µM; in the experiment with HS 578T breast it was 36.8 µM; in the experiment on UO-31 renal, 3.91 µM; with SN12C renal, 18.3 µM; with T-47D breast it was 15.1 µM; in the experiment on OVCAR-8 ovarian, 24 µM. In addition, the TGI in the experiment on OVCAR-5 ovarian was determined as 32.4 µM; with HCC-2998 colon it was 31.9 µM; in the experiment with SK-MEL-5 melanoma it was 23 µM; in the experiment on UACC-62 melanoma it was 25.3 µM.
In the case of `c1ccc2c(Cc3[nH]c4ccccc4c3Cc3c[nH]c4ccccc34)c[nH]c2c1`, the TGI was > 26.5 µM with MCF7 breast; 5.54 µM in the experiment on HS 578T breast; 11.1 µM in the experiment with UO-31 renal; 4.2 µM in the experiment with SN12C renal; 12.8 µM in the experiment with T-47D breast; 35.6 µM in the experiment on OVCAR-8 ovarian. In addition, the TGI is 8.93 µM with OVCAR-5 ovarian, 3.26 µM with HCC-2998 colon, 6.05 µM in the experiment with SK-MEL-5 melanoma and > 32.4 µM with UACC-62 melanoma.
In the case of `CC(C)C1C(=O)N(c2c(F)c(F)c(F)c(F)c2F)C(=S)N1CCS(=O)c1ccccc1` (stereo not given), the TGI in the experiment on MCF7 breast stood at 35.3 µM; with HS 578T breast, 62.6 µM; in the experiment with UO-31 renal, 28.6 µM; in the experiment on SN12C renal, 31 µM; in the experiment on T-47D breast, 32.5 µM; with OVCAR-8 ovarian it was 32.6 µM. Besides, the TGI in the experiment on OVCAR-5 ovarian is 32.5 µM; with HCC-2998 colon, 21.8 µM; in the experiment with SK-MEL-5 melanoma it was 27.3 µM; with UACC-62 melanoma it was 34.9 µM.
Consider `COc1c(CC=C(C)C)c(O)c(C(CC(C)C)c2c(O)c3c(c(C(C)=O)c2O)OC(C(C)(C)O)C3)c(O)c1C(C)=O` (stereo not given), for which the TGI was 9.87 µM with MCF7 breast; > 12.5 µM with HS 578T breast; > 12.5 µM in the experiment on UO-31 renal; > 12.5 µM in the experiment with SN12C renal; 9.21 µM with T-47D breast; > 12.5 µM in the experiment with OVCAR-8 ovarian. Moreover, the TGI in the experiment with OVCAR-5 ovarian was > 12.5 µM; with HCC-2998 colon, > 12.5 µM; in the experiment with SK-MEL-5 melanoma, 4.44 µM; in the experiment on UACC-62 melanoma it was > 12.5 µM.
On to `c1ccc([P+](CCSCCSCC[P+](c2ccccc2)(c2ccccc2)c2ccccc2)(c2ccccc2)c2ccccc2)cc1`, for which the TGI in the experiment with MCF7 breast, in the experiment with HS 578T breast, with UO-31 renal, with SN12C renal, with T-47D breast and in the experiment on OVCAR-8 ovarian was > 100 µM in each case. The TGI in the experiment on OVCAR-5 ovarian, in the experiment on HCC-2998 colon, in the experiment on SK-MEL-5 melanoma and in the experiment on UACC-62 melanoma was > 100 µM in each case.
In the case of `Cc1cn([C@@H]2C[C@@H]2CO)c(=O)[nH]c1=O`, the TGI with MCF7 breast, in the experiment on HS 578T breast, with UO-31 renal, in the experiment with SN12C renal, with T-47D breast and in the experiment on OVCAR-8 ovarian was > 100 µM each time. For the same molecule, the TGI with OVCAR-5 ovarian, in the experiment on HCC-2998 colon, in the experiment on SK-MEL-5 melanoma and with UACC-62 melanoma was > 100 µM throughout.
Consider `C=C=C(CC1CCCCC1=O)S(=O)(=O)c1ccccc1` (stereo not given), for which the TGI in the experiment on MCF7 breast, with HS 578T breast, with UO-31 renal, with SN12C renal, in the experiment with T-47D breast and in the experiment with OVCAR-8 ovarian was > 10 µM throughout. Moreover, the TGI in the experiment on OVCAR-5 ovarian, with HCC-2998 colon, with SK-MEL-5 melanoma and in the experiment with UACC-62 melanoma was > 10 µM in each case.
